Results: patent US7090861B2, “Sustained release delivery systems for solutes” (Farrington Pharmaceuticals, LLC, priority 2000, dated 2006)
Like-named read-outs stand apart in the source and are kept apart here.

Tests used:
[1] = Cumulative release of albumin from a controlled-release device; assay type: physicochemical
Method: Bovine serum albumin (MW 68,000) was dissolved in phosphate buffered saline and loaded into a device designed to deliver a loading dose. After an initial burst release, the rate becomes constant. Data are plotted as the cumulated delivery of albumin over time, measured as described for FIG. 5. Approximately 10 mg was delivered in 24 hours.

[2] = cited from earlier work

Compound	release kinetics of albumin ([1]; after an initial burst release)	cumulated delivery of albumin ([1]; in 24 hours, device designed to deliver a loading dose)	absorption, share of the total ([2]; ileum) [%]	absorption, share of the total ([2]; jejunum) [%]	absorption, share of the total ([2]; stomach) [%]
Bovine serum albumin: Bovine serum albumin (MW 68,000) in phosphate buffered saline, loaded into a device designed to deliver a loading dose	zero order rate release of albumin over a duration of 24 hours	Approximately 10 mg			
[Ca+2] [calcium]			60	20	< 2
